Literature values, collected in paper PMC6492937.

Assay: not told

Row | SMILES | log partition octanol / water [log10]
1 | CCCCCC(=O)N(C)C | 1.36
2 | CCCCCCCCCC(=O)N1CC(O)CC1C(=O)NCC (stereo not drawn) | 2.86
3 | CCCCN1CCCCCC1=O | 1.80
4 | CCCCCCCCN1CCCCCC1=O | 4.04
5 | CCCCCCCCC(=O)N(C)C | 3.00
6 | CCCCCCCCCCCCN1CCCCCC1=O | 6.28
7 | CCCCN1CCCCC1=O | 1.39
8 | CCCCCCCC(=O)N(C)C | 2.59
9 | CCCCCCC(=O)N(C)C | 1.89

Continued, values first:

Row | log partition octanol / water [log10] | SMILES
10 | 2.1 | CCCCCCN1CCCC1=O
11 | 3.41 | CCCCCCCCN1CCCCC1=O
12 | 2.91 | CCCCCCN1CCCCCC1=O
13 | 3.05 | CCCCCCCCN1CCCC1=O
14 | 1.02 | CCCCN1CCCC1=O
15 | 2.3 | CCCCCCN1CCCCC1=O
